Source: patent US20230000876A1, “TREATING CANCERS WITH A CYCLIN-DEPENDENT KINASE INHIBITOR” (Nuvation Bio Inc., priority 2021, published 2023)

What was measured:
[1] = system: VCap prostate cancer; assay: Non-castrated VCap prostate cancer model; type: in vivo, male CB17/Scid mice; details: Group 2: Enzalutamide 20 mg/kg p.o. QD * 26 days
Protocol: Compound (I), enzalutamide, and abiraterone were tested in non-castrated VCap prostate cancer model in male CB17/Scid mice.
All treatment groups reduced mean tumor volume.

[2] = system: tumor fragments from a mCRPC patient; assay: Enzalutamide-resistant patient-derived xenograft prostate model (ST2347 PDX); type: in vivo, male Balb/c nude mice; details: 30 mg/kg oral QD
[3] = system: 22Rv1 tumors; assay: 22Rv1 prostate tumor model (Example 3); type: in vivo, male Balb/c nude mice; details: for Tumor volume (mean ± SEM): 30 mg/kg PO QD
Protocol: The in vivo anti-tumor efficacy of the compound of formula (I) either alone or in combination with enzalutamide prostate tumor model on male Balb/c nude mice was evaluated. The cell line is derived from a xenograft that was serially propagated in mice after castration—induced regression and relapse of the parental, androgen-dependent CWR22 xenograft.
In the study, the compound of formula (I) was dosed orally (po) once daily (QD) and enzalutamide, when administered, was dosed orally once daily for 25 days, as shown in Table 8.
The 22Rv1 tumor cells were maintained in vitro in RPMI1640 medium supplemented with 10% heat inactivated fetal bovine serum at 37° C. in an atmosphere of 5% CO2 in air. The tumor cells were routinely subcultured twice weekly. The cells growing in an exponential growth phase were harvested and counted for tumor inoculation.
Each mouse was inoculated subcutaneously at the right flank with 22Rv1 tumor cells (5*10^6) with 50% Matrigel for tumor development. The treatments were started on day 7 after tumor inoculation when the average tumor volume reached 94 mm^3. A total of 48 mice were selected and assigned into 6 groups. The testing articles were administrated to the mice according to Table 8.
The major endpoint was to see if the tumor growth could be delayed or mice could be cured. Tumor size was measured twice weekly in two dimensions using a caliper, and the volume was expressed in mm^3 using the formula: V=0.5 a×b^2 where a and b are the long and short diameters of the tumor, respectively. The tumor sizes are then used for the calculation of T/C and TGI values.
(§1) The T/C value (in percent) is an indication of antitumor effectiveness; T and C are the mean volume of the treated and control groups, respectively, on a given day.
(§2) TGI was calculated for each group using the formula: TGI (%)=[1−(Ti−T0)/(Vi−V0)]×100; Ti is the average tumor volume of a treatment group on PG-Di, T0 is the average tumor volume of the treatment group on the day of treatment start, Vi is the average tumor volume of the vehicle control group on the same day with Ti, and V0 is the average tumor volume of the vehicle group on the day of treatment start.
All groups were taken down on PG-D24 and PG-D25 when the average tumor size of vehicle group reached 2305 mm^3.
Summary statistics, including mean and the standard error of the mean (SEM), are provided for the tumor volume of each group at each time point. For comparison among groups, a one-way ANOVA was performed. All the analysis were conducted using GraphPad Prism software. p<0.05 was considered to be statistically significant.

[4] = system: PC-9-luc; assay: CellTiter-Glo anti-proliferation assay, PC-9-luc; type: cell-based
Protocol: (§3) The anti-proliferation effect of 2 compounds (the compound of formula (I) and temozolomide) in 7 CNS metastasis cell lines (MOLT-4-luc, Nalm-6-luc, NCI-H460-luc, ACHN-luc2, PC-9-luc, H1975-luc, and KM12-luc) was evaluated.
(§4) The plating of cells and compound treatments are shown below in the plate map (Table 12). One plate was needed for the test of 2 compounds (the compound of formula (I) and temozolomide) in one cell line. The compound of formula (I) was tested from 10 μM, 3-fold serial dilution. Temozolomide was tested from 100 μM, 3-fold serial dilution.
(§5) All the cell lines were maintained in culture conditions at 37° C. in an atmosphere with 5% CO2 in air. The tumor cells were routinely subcultured. The cells growing in an exponential growth phase were harvested and counted for plating.
(§6) Cells were counted by haemocytometer with Trypan blue staining. Next, 135 μL of cell suspension were plated into the assay plates according to the plate map and 135 μL of assay medium into the blank wells. The plates were incubated at 37° C., 5% CO2, 95% air and 100% relative humidity overnight.
(§7) 4.4.4 Compound Plate (10×) Preparation and Compound Treatment • 10× concentrate compound plate preparation: Add 198 μL of assay medium into each well of the V-bottom plate; then transfer 2 μL of the stock compound solution of each concentration from the stock plate. Add 2 μL of DMSO into the Blank and Control wells. Pipette up and down to mix well. This V-plate is designated as the 10× concentrate compound plate. • For day 0 plate, add 15 μL of the DMSO-medium into the Control wells. The final DMSO concentration was 0.1%. Then directly proceed to cell viability assay. • For assay plate, add 15 μL of the compound-medium of each well from the 10× concentrate compound plate into the cells in 96-well assay plate according to the plate map. Add 15 μL of the DMSO-medium into the Blank and Control wells. The final DMSO concentration was 0.1%. • Return the assay plate into incubator and incubate for 6 days.
(§8) The procedures were performed according to the Promega CellTiter-Glo Luminescent Cell Viability Assay Kit manual (Promega-G7573). • The CellTiter-Glo buffer was thawed and equilibrated to room temperature prior to use. • CellTiter-Glo Substrate was equilibrated to room temperature prior to use. • The entire liquid volume of CellTiter-Glo Buffer was transferred into the amber bottle containing CellTiter-Glo Substrate to reconstitute the lyophilized enzyme/substrate mixture. This forms the CellTiter-Glo Reagent. • The contents were mixed by gently vortexing to obtain a homogeneous solution. • The plate was equilibrated and its contents to room temperature for approximately 30 minutes. 75 μL (equal to the half volume of culture medium present in each well) CellTiter-Glo • Reagent was added in each well. Plates were covered with aluminum foil to protect from light. • The contents were mixed for 2 minutes on an orbital shaker to induce cell lysis. • The plate was incubated at room temperature for 20 minutes to stabilize luminescent signal. • Record luminescence on the 2104 EnVision plate reader.
(§9) Inhibition rate (IR) of the tested compounds was determined by the following formula: IR (%)=(1−(RLU compound−RLU day0)/(RLU control−RLU day0))*100%. The inhibitions of different dose of compound were calculated in Excel file, and then were used to plot inhibition curves and evaluate related parameters, such as Min (%), Max (%) and GI50. The data were interpreted by GraphPad Prism.

[5] = system: U-118MG xenograft tumors; assay: U-118MG glioma subcutaneous xenograft model; type: in vivo, female CB17 SCID mice; details: QD; for Tumor volume (mean ± SEM): 1 mg/kg PO
Protocol: The tumor cells were routinely subcultured twice weekly. The cells growing in an exponential growth phase were harvested and counted for tumor inoculation.
The treatments was started on day 7 after tumor inoculation when the average tumor volume reached 150 mm^3. 60 mice were selected and assigned into 6 groups. The testing articles were administrated to the mice according to Table 1.
Tumor size was measured twice weekly in two dimensions using a caliper, and the volume was expressed in mm^3 using the formula: V=0.5 a×b^2 where a and b are the long and short diameters of the tumor, respectively. The tumor sizes are then used for the calculation of T/C and TGI values.
as §1
as §2, with “PG-D28” for “PG-Di,”
All Groups were taken down on PG-D28, tumor, plasma and brain samples were collected.
For statistical analysis for difference among groups 2-6 and group 1, a one-way ANOVA was performed. All the analysis were conducted using GraphPad Prism software. p<0.05 was considered to be statistically significant.

[6] = system: KM12-luc; assay: CellTiter-Glo anti-proliferation assay, KM12-luc; type: cell-based
Protocol: as §3, §4, §5, §6, §7, §8, §9

[7] = system: NCI-H460-luc; assay: CellTiter-Glo anti-proliferation assay, NCI-H460-luc; type: cell-based
Protocol: as §3, §4, §5, §6, §7, §8, §9

[8] = system: Nalm-6-luc; assay: CellTiter-Glo anti-proliferation assay, Nalm-6-luc; type: cell-based
Protocol: as §3, §4, §5, §6, §7, §8, §9

[9] = system: U-87MG-luc orthotopic intracranial tumors; assay: U-87MG-luc glioblastoma orthotopic intracranial model, survival; type: in vivo, female BALB/c nude mice; details: 1 mg/kg PO*QD × 5/7 days (vehicle 37 days)
Protocol: U-87MG-luc cells were derived from U-87MG parental cells acquired from ATCC by stably introducing the gene that encodes the luciferase (luc) protein. The U-87MG-luc cells were cultured at 37° C. in an atmosphere of 5% CO2 in air. The tumor cells were routinely subcultured twice weekly. The cells growing in an exponential growth phase were harvested and counted for tumor inoculation.
3×10^5 U-87MG-luc tumor cells were micro-injected into the right lobe (caudate nucleus) of the brain of each mouse. A total of 94 mice were inoculated. Ten days after cell inoculation, bioluminescence were measured by Xenogen IVIS Lumina II machine, 70 mice were selected and randomly assigned into 7 groups based on bioluminescence intensity and bodyweight. The mice were dosed according to Table 25.

[10] = system: MOLT-4-luc; assay: CellTiter-Glo anti-proliferation assay, MOLT-4-luc; type: cell-based
Protocol: as §3, §4, §5, §6, §7, §8, §9

[11] = system: ACHN-luc2; assay: CellTiter-Glo anti-proliferation assay, ACHN-luc2; type: cell-based
Protocol: as §3, §4, §5, §6, §7, §8, §9

[12] = system: H1975-luc; assay: CellTiter-Glo anti-proliferation assay, H1975-luc; type: cell-based
Protocol: as §3, §4, §5, §6, §7, §8, §9

[13] = enzalutamide 30 mg/kg QD, PG-D24
[14] = 144 h, 6 days incubation, read-out: Absolute GI50
[15] = inhibition rate, 6 days, Compound (I) from 10 μM, temozolomide from 100 μM, 3-fold, 9 points
[16] = Group 6: Temozolomide 1 mg/kg PO, PG-D27

CNC(=O)c1ccc(N2C(=S)N(c3ccc(C#N)c(C(F)(F)F)c3)C(=O)C2(C)C)cc1F [Enzalutamide, reference compound]
Tumor volume (mean ± SEM) ([1]; Day 0): 171.8 ± 6.1 mm^3 | Tumor volume (mean ± SEM) ([1]; Day 4): 287.4 ± 17^ mm^3 | Tumor volume (mean ± SEM) ([1]; Day 7): 352.2 ± 28.8 mm^3 | Tumor volume (mean ± SEM) ([1]; Day 11): 542.8 ± 50.7 mm^3 | Tumor volume (mean ± SEM) ([1]; Day 14): 662.7 ± 51.7 mm^3 | Tumor volume (mean ± SEM) ([1]; Day 18): 761.9 ± 60.9 mm^3 | Tumor volume (mean ± SEM) ([1]; Day 21): 891.2 ± 82.8 mm^3 | Tumor volume (mean ± SEM) ([1]; Day 25): 1005.9 ± 71.4 mm^3 | Antitumor activity over the course of the treatment [2]: minimal effect | Tumor volume (mean ± SEM) ([3]; day 0): 94 ± 4 mm^3 | Tumor volume (mean ± SEM) ([3]; day 3): 177 ± 13 mm^3 | Tumor volume (mean ± SEM) ([3]; day 7): 345 ± 23 mm^3 | Tumor volume (mean ± SEM) ([3]; day 10): 507 ± 53 mm^3 | Tumor volume (mean ± SEM) ([3]; day 14): 825 ± 65 mm^3 | Tumor volume (mean ± SEM) ([3]; day 17): 1115 ± 65 mm^3 | Tumor volume (mean ± SEM) ([3]; day 21): 1531 ± 143 mm^3 | Tumor volume (mean ± SEM) ([3]; day 24): 1814 ± 186 mm^3 | T/C [3, 13]: 78.69% | TGI [3, 13]: 22.17%

Cn1nnc2c(C(N)=O)ncn2c1=O [Temozolomide, reference compound]
GI50 [4, 14]: > 100 µM | Max (%) [4, 15]: 5.6% | Min (%) [4, 15]: −13.1% | Tumor volume (mean ± SEM) ([5]; day 0): 154 ± 12 mm^3 | Tumor volume (mean ± SEM) ([5]; day 3): 239 ± 18 mm^3 | Tumor volume (mean ± SEM) ([5]; day 7): 306 ± 17 mm^3 | Tumor volume (mean ± SEM) ([5]; day 10): 346 ± 22 mm^3 | Tumor volume (mean ± SEM) ([5]; day 14): 358 ± 22 mm^3 | Tumor volume (mean ± SEM) ([5]; day 17): 395 ± 30 mm^3 | Tumor volume (mean ± SEM) ([5]; day 21): 411 ± 31 mm^3 | Tumor volume (mean ± SEM) ([5]; day 24): 423 ± 35 mm^3 | Tumor volume (mean ± SEM) ([5]; day 28): 473 ± 44 mm^3 | T/C [5, 16]: 74.94% | TGI [5, 16]: 33.24% | Tumor Size [5, 16]: 473 ± 44 mm^3 | GI50 ([6]; KM12-Luc, 144 h, 6 days incubation, read-out: Absolute GI50): > 100 µM | Max (%) [6, 15]: 1.6% | Min (%) [6, 15]: −12.1% | GI50 ([7]; NCI-H460-Luc, 144 h, 6 days incubation, read-out: Absolute GI50): > 100 µM | Max (%) [7, 15]: 7.2% | Min (%) [7, 15]: 4.8% | GI50 [8, 14]: > 100 µM | Max (%) [8, 15]: 22.9% | Min (%) [8, 15]: 6.5% | Median survival [9]: 44 days | GI50 [10, 14]: > 100 µM | Max (%) [10, 15]: 23.2% | Min (%) [10, 15]: −2.2% | GI50 ([11]; ACHN-luc2, 144 h, 6 days incubation, read-out: Absolute GI50): > 100 µM | Max (%) [11, 15]: 20.0% | Min (%) [11, 15]: 2.8% | GI50 [12, 14]: > 100 µM | Max (%) [12, 15]: 13.0% | Min (%) [12, 15]: −0.3%
